Results reported in patent publication US20190105337A1, “METHODS OF TREATING BACTERIAL INFECTIONS” (priority 2015, published 2019).
Like-named read-outs stand apart in the source and are kept apart here.

Assays:
[1] = Example 6: noncompartmental plasma pharmacokinetics after third dose of the Combination (2 g meropenem/2 g Compound I q8h); conditions: for AUC(0-t) / clearance / Cmax / Tmax / half-life: both, human, plasma, intravenous; for AUC(0-t): AUC0-8, meropenem 2 g q8h; for clearance: CL; for clearance / Cmax / Tmax / Vss: meropenem 2 g q8h; for half-life: t1/2, meropenem 2 g q8h
Description: A total of twenty-five (n=25) male and female subjects who met the study entry criteria and completed all phases of the pharmacokinetic study were included in this pharmacokinetic analysis. […] Blood samples were collected to measure drug concentrations in plasma prior to (time 0), and at 1.5, 2.95, 3.083, 3.25, 3.5, 4, 6, and 8 hours after the start of a 3-hour intravenous infusion of the third combination dose.
(Reports MC14B-0013, MC14B-0015, MC14I-011, and MC14I-0012). The urea concentrations in plasma and BAL were performed with a microplate-based method with an 0-phthalaldehyde chromogenic solution at MicroConstants, Inc., San Diego, Calif.
Peak plasma concentration (Cmax) and time to Cmax (Tmax) were read from the observed plasma concentration-time profile after the start of the intravenous infusion of the third Combination dose. Area under the plasma concentration-time curve over 8 hours (AUC0-8) after the third dose was calculated with the linear-log trapezoidal rule (WinNonlin®, version 6.3, Pharsight Corporation, Cary, N.C.). The elimination rate constant (β) was determined by nonlinear least-squares regression. Elimination half-life (t½) was calculated by dividing β into the natural logarithm of two.

clinical [2] = conditions: human, in vivo
Description: The combination of both drugs was administered on day 7. All drugs were infused over 3 hours. Plasma and urine samples were obtained and assayed using validated HPLC/MS methods.

[3] = In vitro hollow fiber model: pharmacokinetic parameters of meropenem and Compound I in the central compartment (Tables E, F)
Description: In Vitro PK-PD Model: Six medium sized hollow-fiber cartridges (FiberCell Systems) were used per experiment. Three strains studied in duplicate were used for each experiment. Log-phase cells were inoculated and incubated for 2 hours prior to the start of treatment to achieve about 10^8 CFU/mL. Target PK parameters are listed in Tables E and F. The exposures were based on the published literatures disclosed in Example 2. Samples were collected from the central compartment for the determination of drug concentrations over a 32 hour period and were analyzed using an LC-MS/MS method.

clinical [4] = conditions: human, in vivo; remark: listed apart in the source
Description: All infusions were administered over 3 hours. Intensive plasma and urine PK sampling was obtained after dosing and assayed using validated HPLC/MS methods.

Plasma protein binding = format: in vitro ADME
[5] = human, in vivo
Description: Forty one subjects were enrolled in 5 groups based on their degree of renal insufficiency. The five cohorts included: patients with normal renal function (CrCl≥90 ml/min), mild renal impairment (CrCl 60-89 ml/min), moderate renal impairment (CrCl 30-<60 ml/min), severe renal impairment (CrCl<30 ml/min, and patients with end stage renal disease requiring hemodialysis. Patients on renal replacement therapy other than standard hemodialysis (including continuous veno-venous hemofiltration, continuous veno-venous hemodialysis and continuous renal replacement therapy) were not studied.

[6] = combination Compound I/meropenem (Table F)

## C[C@@H](O)[C@H]1C(=O)N2C(C(=O)O)=C(S[C@@H]3CN[C@H](C(=O)N(C)C)C3)[C@H](C)[C@H]12 [meropenem, Meropenem]
[1]; 1.5-hour BAL Sampling Group
  AUC(0-t): 168 ± 41.7 µg·h/mL
  clearance: 208 mL/min
  Cmax: 56.9 ± 19.3 µg/mL
  Tmax: 2.95 ± 0.01 h
  half-life: 0.98 ± 0.05 h
  Vss: 17.5 ± 2.5 L
[1]; 3.25-hour BAL Sampling Group
  AUC(0-t): 184 ± 29.7 µg·h/mL
  clearance: 185 mL/min
  Cmax: 57.9 ± 7.5 µg/mL
  Tmax: 3 ± 0.07 h
  half-life: 1.04 ± 0.13 h
  Vss: 16.7 ± 2.6 L
[1]; 4-hour BAL Sampling Group
  AUC(0-t): 196 ± 33.5 µg·h/mL
  clearance: 175 mL/min
  Cmax: 59.6 ± 7.4 µg/mL
  Tmax: 2.98 ± 0.06 h
  half-life: 1.07 ± 0.15 h
  Vss: 15.3 ± 2.1 L
[1]; 6-hour BAL Sampling Group
  AUC(0-t): 197 ± 38.7 µg·h/mL
  clearance: 173 mL/min
  Cmax: 59.4 ± 11.5 µg/mL
  Tmax: 2.98 ± 0.06 h
  half-life: 1.12 ± 0.24 h
  Vss: 16.1 ± 3.4 L
[1]; 8-hour BAL Sampling Group
  AUC(0-t): 182 ± 28.7 µg·h/mL
  clearance: 187 mL/min
  Cmax: 57.3 ± 9 µg/mL
  Tmax: 2.98 ± 0.06 h
  half-life: 0.96 ± 0.13 h
  Vss: 15.6 ± 2.8 L
[1]; All Subjects
  AUC(0-t): 186 ± 33.6 µg·h/mL
  clearance: 185 mL/min
  Cmax: 58.2 ± 10.8 µg/mL
  Tmax: 2.98 ± 0.06 h
  half-life: 1.03 ± 0.15 h
  Vss: 16.3 ± 2.6 L
Clinical [2]
  AUC(0-∞): 130.34 µg·h/mL
  Cmax: 42.54 µg/mL
Clinical [2]; Half-Life
  half-life: 0.98 h
Clinical [2]; Plasma Clearance
  clearance: 334 mL/min
Clinical [2]; Vss
  Vd: 25.9 L
[3]; [6]
  AUC, Average Meropenem Actual: 131.5 µg·h/mL
  Cmax, Average Meropenem Actual: 33.5 µg/mL
  Half-Life, Average Meropenem Actual: 1.4 h
[3]; meropenem alone (Table E)
  AUC, Average Meropenem Actual: 129.0 µg·h/mL
  Cmax, Average Meropenem Actual: 33.9 µg/mL
  Half-Life, Average Meropenem Actual: 1.3 h
Clinical [4]
  AUC(0-∞): 130.34 µg·h/mL
  Cmax: 42.54 µg/mL
Clinical [4]; Half-Life
  half-life: 0.98 h
Clinical [4]; Plasma Clearance
  clearance: 334 mL/min
Clinical [4]; Vss
  Vd: 25.9 L
Plasma protein binding
  fraction unbound: 0.94
Plasma protein binding; human
  fraction unbound: 0.98
[5]
  non-renal clearance: non-renal clearance assumes a greater proportion of total clearance
